{
  "source": "patent US12528802B2",
  "about": "“Heterocyclic compound” (Takeda Pharmaceutical Company Limited, priority 2019, dated 2026)",
  "data": [
    {"target": "T1, glucosylceramide synthase (Homo sapiens, UniProt Q16739)", "T1 construct": "made in house; host or cells: Expi293F cells (transient expression, pcDNA3.3-TOPO vector); microsome fraction used as enzyme source", "T1 sequence (Q16739 1-394)": "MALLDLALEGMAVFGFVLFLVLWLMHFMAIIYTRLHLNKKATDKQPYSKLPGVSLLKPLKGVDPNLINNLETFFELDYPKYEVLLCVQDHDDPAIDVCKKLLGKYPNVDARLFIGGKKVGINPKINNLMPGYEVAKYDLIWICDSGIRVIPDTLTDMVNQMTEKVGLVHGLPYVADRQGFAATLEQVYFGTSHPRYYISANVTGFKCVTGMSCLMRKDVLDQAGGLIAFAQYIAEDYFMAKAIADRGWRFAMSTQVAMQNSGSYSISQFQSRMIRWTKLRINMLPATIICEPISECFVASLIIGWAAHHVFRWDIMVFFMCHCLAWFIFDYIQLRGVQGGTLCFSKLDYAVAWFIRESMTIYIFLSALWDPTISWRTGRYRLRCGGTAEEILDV", "test": "Glucosylceramide synthase (GCS) enzyme assay, microsome fraction, C8 glucosylceramide quantified by Rapidfire MS/MS", "type": "biochemical", "conditions": "test compound 10 μM; 1.7 μM UDP-glucose, 3 μM C8 ceramide; room temperature 60 min; read-out: GCS enzyme inhibitory rate at 10 μM (%) (% of control)", "procedure,_shortened": "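Test compound, 10 μM final, was run against human GCS from transfected Expi293F microsome fractions, using substrate solution of 6 μM C8 ceramide (in DOPC liposomes) plus 3.4 μM UDP-glucose, pH 7.5 Tris buffer, 60 min, room temperature. Product C8 glucosylceramide measured by Rapidfire MS/MS against an internal standard, % inhibition referenced to no-enzyme and DMSO wells.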", "units": {"inhibition at 10 µM": "%"}, "values": [
      {"smiles": "O=C1c2ccnc(-c3ccccc3OCC(F)(F)F)c2CN1c1ccc(C2(O)CCOCC2)cc1", "note": "[Example 242, 2-[4-(4-hydroxyoxan-4-yl)phenyl]-4-[2-(2,2,2-trifluoroethoxy)phenyl]-2,3-dihydro-1H-pyrrolo[3,4-c]pyridin-1-one]", "inhibition at 10 µM": 100},
      {"smiles": "O=C1c2ccnc(-c3ccc(F)cc3OCC(F)(F)F)c2CN1c1ccc(C(O)C(F)(F)F)cc1", "note": "(racemic) [Example 251, rac-4-[4-fluoro-2-(2,2,2-trifluoroethoxy)phenyl]-2-[4-(2,2,2-trifluoro-1-hydroxyethyl)phenyl]-2,3-dihydro-1H-pyrrolo[3,4-c]pyridin-1-one]", "inhibition at 10 µM": 96},
      {"smiles": "COC(=O)c1ccc(-c2nccc3c2CN(c2ccc(F)cc2)C3=O)c(OC(F)F)c1", "note": "[Example 34, methyl 3-(difluoromethoxy)-4-[2-(4-fluorophenyl)-1-oxo-2,3-dihydro-1H-pyrrolo[3,4-c]pyridin-4-yl]benzoate]", "inhibition at 10 µM": 83},
      {"smiles": "Cc1cc2c(c(-c3ccccc3OCC(F)F)n1)CN(c1ccc(OCC(C)(C)O)cc1)C2=O", "note": "[Example 365, 4-[2-(2,2-difluoroethoxy)phenyl]-2-[4-(2-hydroxy-2-methylpropoxy)phenyl]-6-methyl-2,3-dihydro-1H-pyrrolo[3,4-c]pyridin-1-one]", "inhibition at 10 µM": 100},
      {"smiles": "CC(C)(C#N)COc1cc(F)ccc1-c1nccc2c1CN(c1ccc(OC(F)F)nc1)C2=O", "note": "[Example 171, 3-(2-{2-[6-(difluoromethoxy)pyridin-3-yl]-1-oxo-2,3-dihydro-1H-pyrrolo[3,4-c]pyridin-4-yl}-5-fluorophenoxy)-2,2-dimethylpropanenitrile]", "inhibition at 10 µM": 52},
      {"smiles": "CC(O)(c1ccc(N2Cc3c(ccnc3-c3ccc(F)cc3OCC(F)(F)F)C2=O)cc1)C(F)F", "note": "(racemic) [Example 296, rac-2-[4-(1,1-difluoro-2-hydroxypropan-2-yl)phenyl]-4-[4-fluoro-2-(2,2,2-trifluoroethoxy)phenyl]-2,3-dihydro-1H-pyrrolo[3,4-c]pyridin-1-one]", "inhibition at 10 µM": 100},
      {"smiles": "CC(O)c1ccc(N2Cc3c(ccnc3-c3ccc(F)cc3OCC(F)(F)F)C2=O)cc1", "note": "(racemic) [Example 282, rac-4-[4-fluoro-2-(2,2,2-trifluoroethoxy)phenyl]-2-[4-(1-hydroxyethyl)phenyl]-2,3-dihydro-1H-pyrrolo[3,4-c] pyridin-1-one]", "inhibition at 10 µM": 99},
      {"smiles": "CN(C)C(=O)c1ccc(N2Cc3c(ccnc3-c3ccc(F)cc3OCC(F)(F)F)C2=O)cc1", "note": "[Example 102, 4-{4-[4-fluoro-2-(2,2,2-trifluoroethoxy)phenyl]-1-oxo-1,3-dihydro-2H-pyrrolo[3,4-c]pyridin-2-yl}-N,N-dimethylbenzamide]", "inhibition at 10 µM": 90},
      {"smiles": "O=C1c2ccnc(-c3ccc(F)cc3OCc3ccccc3)c2CN1c1ccc(OC(F)F)cc1", "note": "[Example 114, 4-[2-(benzyloxy)-4-fluorophenyl]-2-[4-(difluoromethoxy)phenyl]-2,3-dihydro-1H-pyrrolo[3,4-c]pyridin-1-one]", "inhibition at 10 µM": 99},
      {"smiles": "O=C1c2ccnc(-c3ccc(F)cc3OCC3COC3)c2CN1c1ccc(OC(F)F)cc1", "note": "[Example 126, 2-[4-(difluoromethoxy)phenyl]-4-{4-fluoro-2-[(oxetan-3-yl)methoxy]phenyl}-2,3-dihydro-1H-pyrrolo[3,4-c]pyridin-1-one]", "inhibition at 10 µM": 97},
      {"smiles": "COc1ccccc1-c1nccc2c1CN(c1ccc(F)cn1)C2=O", "note": "[Example 43, 2-(5-fluoropyridin-2-yl)-4-(2-methoxyphenyl)-2,3-dihydro-1H-pyrrolo[3,4-c]pyridin-1-one]", "inhibition at 10 µM": 95},
      {"smiles": "CC(C)(O)c1ccc(N2Cc3c(ccnc3-c3ccc(F)cc3OCC(F)F)C2=O)cc1F", "note": "[Example 274, 4-[2-(2,2-difluoroethoxy)-4-fluorophenyl]-2-[3-fluoro-4-(2-hydroxypropan-2-yl)phenyl]-2,3-dihydro-1H-pyrrolo[3,4-c]pyridin-1-one]", "inhibition at 10 µM": 97},
      {"smiles": "CC(C)(O)c1ccc(N2Cc3c(ccnc3-c3cc(F)c(F)cc3OCC(F)(F)F)C2=O)cc1", "note": "[Example 322, 4-[4,5-difluoro-2-(2,2,2-trifluoroethoxy)phenyl]-2-[4-(2-hydroxypropan-2-yl)phenyl]-2,3-dihydro-1H-pyrrolo [3,4-c]pyridin-1-one]", "inhibition at 10 µM": 95},
      {"smiles": "CCC(=O)c1ccc(N2Cc3c(ccnc3-c3ccccc3OCC(F)(F)F)C2=O)cc1", "note": "[Example 190, 2-(4-propanoylphenyl)-4-[2-(2,2,2-trifluoroethoxy)phenyl]-2,3-dihydro-1H-pyrrolo[3,4-c]pyridin-1-one]", "inhibition at 10 µM": 98},
      {"smiles": "O=C1c2cncc(-c3ccccc3OCC(F)(F)F)c2CN1c1ccc(F)cc1", "note": "[Example 87, 2-(4-fluorophenyl)-7-[2-(2,2,2-trifluoroethoxy)phenyl]-1,2-dihydro-3H-pyrrolo[3,4-c]pyridin-3-one]", "inhibition at 10 µM": 86},
      {"smiles": "CC(O)(c1ccc(N2Cc3c(ccnc3-c3ccccc3OCC(F)(F)F)C2=O)cc1)C(F)F", "note": "(single isomer, unassigned) [Example 315, (R or S)-2-[4-(1,1-difluoro-2-hydroxypropan-2-yl)phenyl]-4-[2-(2,2,2-trifluoroethoxy)phenyl]-2,3-dihydro-1H-pyrrolo[3,4-c]pyridin-1-one]", "inhibition at 10 µM": 100},
      {"smiles": "CC(C)(O)COc1ccc(N2Cc3c(cn(C4CC4)c(=O)c3-c3ccccc3OCC(F)(F)F)C2=O)cc1", "note": "[Example 372, 5-cyclopropyl-2-[4-(2-hydroxy-2-methylpropoxy)phenyl]-7-[2-(2,2,2-trifluoroethoxy)phenyl]-1H-pyrrolo[3,4-c]pyridine-3,6(2H,5H)-dione]", "inhibition at 10 µM": 100},
      {"smiles": "O=C1c2cc(C3CCCOC3)nc(-c3ccc(F)cc3OCC(F)(F)F)c2CN1c1ccc(F)cc1", "note": "(racemic) [Example 386, rac-2-(4-fluorophenyl)-4-[4-fluoro-2-(2,2,2-trifluoroethoxy)phenyl]-6-(oxan-3-yl)-2,3-dihydro-1H-pyrrolo[3,4-c]pyridin-1-one]", "inhibition at 10 µM": 99},
      {"smiles": "O=C1c2ccnc(-c3ccc(F)cc3OCC(F)F)c2CN1c1ccc(C2(O)CCC2)cc1", "note": "[Example 267, 4-[2-(2,2-difluoroethoxy)-4-fluorophenyl]-2-[4-(1-hydroxycyclobutyl)phenyl]-2,3-dihydro-1H-pyrrolo[3,4-c]pyridin-1-one]", "inhibition at 10 µM": 99},
      {"smiles": "Fc1ccc(N2Cc3cnn(-c4ccccc4OCC(F)(F)F)c3C2)cc1", "note": "[Example 193, 5-(4-fluorophenyl)-1-[2-(2,2,2-trifluoroethoxy)phenyl]-1,4,5,6-tetrahydropyrrolo[3,4-c]pyrazole]", "inhibition at 10 µM": 98},
      {"smiles": "O=C(c1ccc(-c2nccc3c2CN(c2ccc(OC(F)F)nc2)C3=O)c(OC(F)F)c1)N1CCC1", "note": "[Example 125, 4-[4-(azetidine-1-carbonyl)-2-(difluoromethoxy)phenyl]-2-[6-(difluoromethoxy)pyridin-3-yl]-2,3-dihydro-1H-pyrrolo[3,4-c]pyridin-1-one]", "inhibition at 10 µM": 94},
      {"smiles": "CCC(=O)c1ccc(N2Cc3c(ccnc3-c3ccc(F)cc3OCC(F)(F)F)C2=O)cc1", "note": "[Example 189, 4-[4-fluoro-2-(2,2,2-trifluoroethoxy)phenyl]-2-(4-propanoylphenyl)-2,3-dihydro-1H-pyrrolo[3,4-c]pyridin-1-one]", "inhibition at 10 µM": 94},
      {"smiles": "CC(C)(O)c1ccc(N2Cc3c(cc(C4CCOCC4)nc3-c3ccccc3OCC(F)(F)F)C2=O)cc1", "note": "[Example 379, 2-[4-(2-hydroxypropan-2-yl)phenyl]-6-(oxan-4-yl)-4-[2-(2,2,2-trifluoroethoxy)phenyl]-2,3-dihydro-1H-pyrrolo[3,4-c]pyridin-1-one]", "inhibition at 10 µM": 101}
    ]}
  ]
}
